Common to all, as to format: cell-based
For assay [1], the system named is LPA-induced MCP-1 in NRK-49F cells. The assay is described as follows: LPA-induced MCP-1 AlphaLISA assay. The conditions noted are these: Rattus norvegicus, final LPA 10 μM, 7 hours; for Emax: read-out: Maximum Inhibition. The essentials:
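NRK-49F rat fibroblasts, serum-starved overnight, pretreated with compound for 30 min at 37 °C (1% DMSO final), then stimulated with 10 μM LPA final. MCP-1 in the supernatant was measured by mouse/rat CCL2 AlphaLISA. IC50 values came from four-parameter logistic fits of the ratio data.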
A general note: Alpha assays give light when donor and acceptor beads are brought close together.

The target of assay [2] is T1, LPAR1 (Homo sapiens, UniProt Q92633).
T1 construct: host or cells: U2OS
As to the kind of experiment: IP-One HTRF Assay. The note with it: U2OS cells stably expressing LPAR1, LPA stimulation, IP-One Tb HTRF kit; for Emax: read-out: Maximum Inhibition. As to the method: U2OS cells stably expressing LPAR1 (Life Technologies #K1519A) were plated at 20000 cells/well in growth medium (McCoy's 5A(Life Technologies #16600-082)) with 10% dFBS (Life Technologies #26400-036), 0.1 mM non-essential amino acids, 25 mM HEPES, 1 mM sodium pyruvate, 1% penicillin/streptomycin, 50 μg/mL hygromycin, and 100 μg/mL Geneticin® in tissue culture treated 384-well white plates (Greiner #781080) in humidified 5% CO2 at 37° C. overnight. On the day of the assay, culture medium was replaced with 30 μL/well of McCoy's 5A with 0.1% BSA. Cells were incubated in humidified 5% CO2 at 37° C. for 3 more hours. Compounds were 3-fold serial diluted from 2 mM for 11-points using dimethyl sulfoxide. 1 μL of compound in DMSO was diluted in 50 μL stimulation buffer from an IP-One Tb HTRF kit (Cisbio #62IPAPEB) immediately before assay. 15 μL/well of 1.33× compound in stimulation buffer was added to cells after removal of culture medium. After 20 minutes of incubation at 37° C., 5 μL/well of 8 μM LPA diluted in stimulation buffer with 0.1% fatty acid free BSA was added to cells. […]. To EC100 wells were added 4×20 μM LPA. To the cells were added 5 μL/well IP1-d2 conjugate and 5 μLwell IP1-K antibody after 2 hours of incubation at 37° C. Cells were incubated at room temperature for 1 hour (protected from light). The plate was then read at 665 nm and 615 nm using an EnVision® Multilabel Plate Reader. IC50 values were calculated from curve fits of the ratio data using a four-parameter logistic Hill equation (Assay Explorer 3.3 Client).

Assay [3] deals with T1, LPAR1. The assay is described as follows: LPAR1 FLIPR Assay. The conditions noted are these: U2OS cells stably expressing LPAR1, LPA (EC80), Calcium 6 FLIPR dye; for Emax: read-out: Maximum Inhibition. The procedure, abridged: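 U2OS cells stably expressing LPAR1 were loaded with Calcium 6 dye for 2 h at 37° C, preincubated 3 min with compound (11-point 3-fold series), then stimulated with LPA at EC80. Fluorescence at 515-575 nm was recorded by FLIPR; IC50 came from four-parameter logistic fits of ratio data.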

T1 sequence (Q92633 whole entry): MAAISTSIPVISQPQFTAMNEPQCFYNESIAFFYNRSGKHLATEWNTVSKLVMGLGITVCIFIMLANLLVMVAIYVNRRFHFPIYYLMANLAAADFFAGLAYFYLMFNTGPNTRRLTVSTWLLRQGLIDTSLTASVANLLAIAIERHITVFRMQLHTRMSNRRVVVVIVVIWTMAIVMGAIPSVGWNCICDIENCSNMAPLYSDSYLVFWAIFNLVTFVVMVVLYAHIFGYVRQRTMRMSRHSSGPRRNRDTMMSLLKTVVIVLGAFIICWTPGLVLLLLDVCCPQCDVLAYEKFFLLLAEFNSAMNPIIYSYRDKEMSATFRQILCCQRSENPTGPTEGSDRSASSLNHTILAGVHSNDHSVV

For the compound `COc1cc(C(=O)N(CCCCC(=O)O)CCCc2ccccc2)cc(OC)c1OC` [Example 10, 5-[(3-phenylpropyl)(3,4,5-trimethoxybenzoyl)amino]pentanoic Acid], the figures for the IC50 in assay [1], in assay [2] and in assay [3] were 4840 nM, 333 nM and 64 nM, respectively. Further, the Emax in assay [1] turned out to be 70%; in assay [2], 77%; in assay [3], 92%.

For `COc1cc(C(=O)N(CCCc2cccc(F)c2)CCSCC(=O)O)cc(OC)c1C` [Example 117, [(2-{(3,5-dimethoxy-4-methylbenzoyl)[3-(3-fluorophenyl)propyl]amino}ethyl)sulfanyl]acetic Acid], the IC50 was found to be 180 nM in assay [1], 473 nM in assay [2] and 10 nM in assay [3]. Besides, the Emax in assay [1] worked out at 91%; in assay [2], 85%; in assay [3], 93%.

For `COc1cc(C(=O)N(CCCc2ccccc2F)CCSCC(=O)O)cc(OC)c1C` [Example 116, [(2-{(3,5-dimethoxy-4-methylbenzoyl)[3-(2-fluorophenyl)propyl]amino}ethyl)sulfanyl]acetic Acid], the figures for the IC50 in assay [1], in assay [2] and in assay [3] were 173 nM, 344 nM and 20 nM, respectively. The Emax came out at 85% in assay [1], 81% in assay [2] and 88% in assay [3].

As to `COc1cc(C(=O)N(CCCCC(=O)O)CCCc2ccccc2)cc(OC)c1C(F)(F)F` [Example 37, 5-{[3,5-dimethoxy-4-(trifluoromethyl)benzoyl](3-phenylpropyl)amino}pentanoic Acid], the IC50 in assay [1] was 479 nM; in assay [2], 69 nM; in assay [3], 32 nM. For the same compound, the values for the Emax in assay [1], in assay [2] and in assay [3] were 81%, 79% and 96%, respectively.

Take `COc1cc(OC)cc(C(=O)N(CCCCC(=O)O)CCCc2cccc(Cl)c2)c1` [Example 91, 5-{[3-(3-chlorophenyl)propyl](3,5-dimethoxybenzoyl)amino}pentanoic Acid]: the IC50 in assay [1] stood at 2090 nM; in assay [2] it was 285 nM; in assay [3], 25 nM. The Emax in assay [1] was 84%; in assay [2] it was 70%; in assay [3], 89%.

For the compound `COc1cc(C(=O)N(CCCc2ccccc2)CCOCP(=O)(O)O)cc(OC)c1C` [Example 50, ({2-[(3,5-dimethoxy-4-methylbenzoyl)(3-phenylpropyl)amino]ethoxy}methyl)phosphonic Acid], the IC50 in assay [1] is 2 nM; in assay [2], 3 nM; in assay [3], 3 nM. The values for the Emax in assay [1], in assay [2] and in assay [3] were 98%, 85% and 101%, respectively.

On to `COc1cc(C(=O)N(CCCCC(=O)O)CCCc2ccccc2)cc(OC)c1C1CC1` [Example 35, 5-[(4-cyclopropyl-3,5-dimethoxybenzoyl)(3-phenylpropyl)amino]pentanoic Acid], for which the IC50 came to 107 nM in assay [1], 59 nM in assay [2] and 32 nM in assay [3]. Moreover, the Emax in assay [1] was 92%; in assay [2], 94%; in assay [3], 98%.

For `COc1cc(C(=O)N(CCCc2cccc(Cl)c2)CCOCC(=O)O)cc(OC)c1C` [Example 109, (2-{[3-(3-chlorophenyl)propyl](3,5-dimethoxy-4-methylbenzoyl)amino}ethoxy)acetic Acid], the 50% inhibitory concentration (IC50) was 1550 nM in assay [1], 809 nM in assay [2] and 15 nM in assay [3]. The Emax in assay [1] worked out at 91%; in assay [2], 85%; in assay [3] it was 93%.

`COc1cc(C(=O)N(CCCCC(=O)O)CCCc2cccc(F)c2)cc(OC)c1C` [Example 33, 5-{(3,5-dimethoxy-4-methylbenzoyl)[3-(3-fluorophenyl)propyl]amino}pentanoic Acid]: the IC50 in assay [1] came to 215 nM; in assay [2], 166 nM; in assay [3], 19 nM. The figures for the Emax in assay [1], in assay [2] and in assay [3] were 84%, 76% and 99%, respectively.

A word on the IC50: it is the concentration needed to halve the response being measured.

For the origin of these results see patent US20190119200A1, “TERTIARY AMIDES AND METHOD OF USE” (AbbVie Inc., priority 2016, published 2019).
